Data: patent US20150204836A1, “SOLUBLE METAL SENSOR COMPOUNDS AND METHODS FOR MAKING AND USING THE SAME” (UNIVERSITY OF UTAH RESEARHC FOUNDATION, priority 2012, published 2015)
Converted amounts (≈) assume the structure as drawn.

Legend:
[1] = Linear fluorescence detection response and detection limit for Hg^2+; conditions: 0.3 μM of Compound 1; corresponding to a 1% decrease of fluorescence intensity
Protocol: Linear detection response for Hg^2+ was determined/established for several concentrations of Compound 1. A linear detection response of Hg^2+ in the range 0 to 18 ppb for 0.3 μM of Compound 1 and a detection limit of 0.4 ppb for Hg^2+, corresponding to a 1% decrease of fluorescence intensity was determined (FIG. 2A).

[2] = Storage stability of metal sensor solution in HDPE/LDPE squeeze bottles; assay type: physicochemical; conditions: 7.4 μM in 50% glycerol-water, on shelf in room and outside in shade
Protocol: High density polyethylene (HDPE) and low density polyethylene (LDPE) squeeze bottles were used to store metal sensor solutions (7.4 μM Compound 1). One pair of HDPE and LDPE bottles was stored on shelf in room, and the other pair of bottles was stored outside in shade. Compound 1 is very stable in 50% glycerol-water without obvious change of absorbance and fluorescence spectra at least for 6 weeks.

[3] = pH tuning study, selectivity for Hg^2+ over 11 other metal ions (fluorescence quenching); conditions: 1.0 μM Compound 1, 11 metal ions each 5 μM, 2.0 μM Hg^2+, pH 4, 5, 6, 7
Protocol: The selectivity of the sensor Compound 1 for Hg^2+ over environmentally relevant alkali, alkaline earth and transition metal ions (K^+, […], Mg^2+, Ca^2+, Ba^2+, Zn^2+, Fe^2+, Ni^2+, Cd^2+, Pb^2+, Cu^2+) was investigated in different pH solution pH=4, 5, NaOAc 0.02M buffer, pH=6, PBS 0.02M buffer, pH 7 water (panel A pH 4.0, panel B pH 5.0, panel C pH 6.0, panel D pH 7.0). Fluorescence spectra of a 1.0 μM Compound 1 solution in the absence (A line) and presence (B line) of a mixture of all 11 metal ions (each 5 μM).

[4] = Temperature effect on fluorescence quenching by Hg^2+; conditions: one point assay, 1.0 μM Compound 1, 2.0 μM Hg^2+, 596 nm, varying temperatures
Excerpt: New sensors could be used to test water sources in quite different locations, at different seasons, and from diverse water sources.

[5] = Solubility in various solvents; assay type: physicochemical
Protocol: Compound 1 is a dark red color solid with solubility in water about 30 μM, much higher than detection concentration (0.3˜5 μM) that is commonly used in fluorometer or portable detector. Various solvents have been tested in the following table. For transferring Compound 1 as aliquots, ethanol-dichloromethane (DCM) (5:1) is a good solvent giving good solubility and easy evaporation of solvent.

[6] = Spectral properties (absorbance, extinction coefficient, emission) in various solvents; assay type: physicochemical

## Cc1cn([C@@H]2C[C@@H](O)[C@H](CNC(=O)CCN3C(=O)c4cc(Oc5cccnc5)c5c6c(Oc7cccnc7)cc7c8c(cc(Oc9cccnc9)c(c9c(Oc%10cccnc%10)cc(c4c59)C3=O)c86)C(=O)N(CCC(=O)NC[C@H]3O[C@@H](n4cc(C)c(=O)[nH]c4=O)C[C@@H]3O)C7=O)O2)c(=O)[nH]c1=O [Compound 1, N-(((2R,3S,5R)-3-hydroxy-5-(5-methyl-2,4-dioxo-3,4-dihydropyrimidin-1(2H)-yl)tetrahydrofuran-2-yl)methyl)-3-(9-(3-((((2S,3R,5S)-3-hydroxy-5-(5-methyl-2,4-dioxo-3,4-dihydropyrimidin-1(2H)-yl)tetrahydrofuran-2-yl)methyl)amino)-3-oxopropyl)-1,3,8,10-tetraoxo-5,6,12,13-tetrakis(pyridin-3-yloxy)-9,10-dihydroanthra[2,1,9-def:6,5,10-d′e′f′]diisoquinolin-2(1H,3H,8H)-yl)propanamide]
[1]
  detection limit for Hg^2+: 0.4 ppb
[2]
  stable without obvious change of absorbance and fluorescence spectra: ≥ 6 weeks
[3]
  fluorescence response on addition of Hg^2+ to mixture of 11 metal ions: fluorescence quenching
[4]
  temperature effect on quenching efficiency: small, but potentially significant, effect
[5]; 15% glycerol in water, aqueous with cosolvent or surfactant or cyclodextrin, 15% Glycerol-H2O
  solubility: ~50 µM (≈ 67.7 µg/mL)
[5]; 30% glycerol in water, aqueous with cosolvent or surfactant or cyclodextrin, 30% Glycerol-H2O
  solubility: > 86 µM
[5]; 30% propylene glycol in water, aqueous with cosolvent or surfactant or cyclodextrin, 30% Propylene glycol-H2O
  solubility: > 86 µM
[5]; 50% glycerol in water, aqueous with cosolvent or surfactant or cyclodextrin, 50% Glycerol-H2O
  solubility: > 86 µM
[5]; 50% propylene glycol in water, aqueous with cosolvent or surfactant or cyclodextrin, 50% Propylene glycol-H2O
  solubility: > 86 µM
[5]; DMF, organic solvent or mixture
  solubility: > 200 µM
[5]; DMF-water (7:3), organic solvent or mixture, DMF-H2O (7:3)
  solubility: > 200 µM
[5]; ethanol, organic solvent or mixture
  solubility: ~100 µM (≈ 135 µg/mL)
[5]; ethanol-dichloromethane (5:1), organic solvent or mixture, Ethanol-DCM (5:1)
  solubility: > 342 µM
[5]; isopropanol, organic solvent or mixture
  solubility: > 86 µM
[5]; water
  solubility: ~30 µM (≈ 40.6 µg/mL)
[6]; 15% Glycerol-H2O
  ε (extinction coefficient): 15000 M⁻¹ cm⁻¹
  λmax,abs: 564 nm
  λmax,flu: 598 nm
[6]; 30% Glycerol-H2O
  ε (extinction coefficient): 16970 M⁻¹ cm⁻¹
  λmax,abs: 566 nm
  λmax,flu: 598 nm
[6]; 50% Glycerol-H2O
  ε (extinction coefficient): 16330 M⁻¹ cm⁻¹
  λmax,abs: 565 nm
  λmax,flu: 598 nm
[6]; DMF-H2O (7:3)
  ε (extinction coefficient): 18900 M⁻¹ cm⁻¹
  λmax,abs: 561 nm
  λmax,flu: 595 nm
[6]; Ethanol
  ε (extinction coefficient): 12830 M⁻¹ cm⁻¹
  λmax,abs: 557 nm
  λmax,flu: 594 nm
[6]; Ethanol-DCM (5:1)
  ε (extinction coefficient): 16000 M⁻¹ cm⁻¹
  λmax,abs: 558 nm
  λmax,flu: 595 nm
[6]; H2O
  ε (extinction coefficient): 12375 M⁻¹ cm⁻¹
  λmax,abs: 563 nm
  λmax,flu: 595 nm
[6]; Isopropanol
  ε (extinction coefficient): 15200 M⁻¹ cm⁻¹
  λmax,abs: 561 nm
  λmax,flu: 594 nm
